For 23 compounds, IC50 results are on record in patent US9701664B2, “Fused 1,4-dihydrodioxin derivatives as inhibitors of heat shock transcription factor 1” (Cancer Research Technology Limited, priority 2013, dated 2017).

The test system of the assay is HSP72 in SK-OV-3 cells. As to the kind of experiment: Cell-based ELISA (Cellisa) assay, SK-OV-3 cells: inhibition of 17-AAG-induced HSP72. Particulars: Homo sapiens; SK-OV-3 cells (Examples 169-218). As for the experimental part: U2OS cells (5-8×10^4 cells/mL) or SK-OV-3 cells (5-8×10^4 cells/mL) were seeded into 96-well plates and incubated at 37° C. for 48 h. Compounds were then added at a range of concentrations and incubated for 1 h before addition of 17-AAG (250 nM). Cells were then incubated for 18 h. The medium was removed washed 2× with PBS and cells were then fixed with fixing solution (4% paraformaldehyde, 0.3% TritonX-100 in PBS) for 30 min at 4° C. The plates were then washed 2× with PBS before blocking with 5% milk for 30 min at 37° C. After washing the plates 4× with 0.1% Tween-20/deionised water, HSP72 antibody (SPA-810, Enzo Life) was added for 1.5 h at 37° C. Following 4× washes, the plates were incubated with europium-labelled anti-mouse antibody (0.6 ug/ml) in Delfia assay buffer (Perkin Elmer) for 1 h at 37° C. After washing the plates, Delfia enhancement solution was added, shaken for 10 min before reading in the Envision plate reader (Perkin-Elmer) with excitation at 340 nm and emission at 615 nm. The plates were washed again before protein determination using the bicinchoninic acid assay (BCA assay, Pierce Biotechnology). The europium counts were normalised for the amount of protein in each well. The 50% inhibitory concentration value of the compound was then calculated.
Broadly, the IC50 is the concentration at which inhibition is half-maximal. In the case of `CCN1CCN(Cc2ccc3cc(C(=O)Nc4cc(NC(=O)c5ccc6c(c5)OCCO6)ccc4Cl)ccc3n2)CC1` [Example 196, N-(2-chloro-5-(2,3-dihydrobenzo[b][1,4]dioxine-6-carboxamido)phenyl)-2-((4-ethylpiperazin-1-yl)methyl)quinoline-6-carboxamide], half-maximal inhibition (IC50) required 48 nM.
In the case of `CC(C)N1CCN(Cc2ccc3cc(C(=O)Nc4cc(NC(=O)c5ccc6c(c5)OCCO6)ccc4Cl)ccc3n2)CC1` [Example 197, N-(2-chloro-5-(2,3-dihydrobenzo[b][1,4]dioxine-6-carboxamido)phenyl)-2-((4-isopropylpiperazin-1-yl)methyl)quinoline-6-carboxamide] it was 43 nM; in that of `O=C(Nc1ccc(Cl)c(NC(=O)c2ccc3nc(CN4CCCC4)ccc3c2)c1)c1ccc2c(c1)OCCO2` [Example 198, N-(2-chloro-5-(2,3-dihydrobenzo[b][1,4]dioxine-6-carboxamido)phenyl)-2-(pyrrolidin-1-ylmethyl)quinoline-6-carboxamide], 173 nM; in that of `O=C(Nc1ccc(Cl)c(NC(=O)c2ccc3nc(CN4CCC4)ccc3c2)c1)c1ccc2c(c1)OCCO2` [Example 199, 2-(azetidin-1-ylmethyl)-N-(2-chloro-5-(2,3-dihydrobenzo[b][1,4]dioxine-6-carboxamido)phenyl)quinoline-6-carboxamide], 85 nM.
For the compound `CC1CN(Cc2ccc3cc(C(=O)Nc4cc(NC(=O)c5ccc6c(c5)OCCO6)ccc4Cl)ccc3n2)C1` [Example 200, N-(2-chloro-5-(2,3-dihydrobenzo[b][1,4]dioxine-6-carboxamido)phenyl)-2-((3-methylazetidin-1-yl)methyl)quinoline-6-carboxamide], half-maximal inhibition (IC50) was put at 84 nM.
The compound `CC1(C)CN(Cc2ccc3cc(C(=O)Nc4cc(NC(=O)c5ccc6c(c5)OCCO6)ccc4Cl)ccc3n2)C1` [Example 201, N-(2-chloro-5-(2,3-dihydrobenzo[b][1,4]dioxine-6-carboxamido)phenyl)-2-((3,3-dimethylazetidin-1-yl)methyl)quinoline-6-carboxamide] had an IC50 of 83 nM.
The compound `Cc1ccc(NC(=O)c2ccc3c(c2)OCCO3)cc1NC(=O)c1ccc2nc(CN3CCN(C(C)C)CC3)ccc2c1` [Example 202, N-(5-(2,3-dihydrobenzo[b][1,4]dioxine-6-carboxamido)-2-methylphenyl)-2-((4-isopropylpiperazin-1-yl)methyl)quinoline-6-carboxamide] came in with an IC50 of 61 nM.
`Cc1ccc(NC(=O)c2ccc3c(c2)OCCO3)cc1NC(=O)c1ccc2nc(CN3CCC3)ccc2c1` [Example 203, 2-(azetidin-1-ylmethyl)-N-(5-(2,3-dihydrobenzo[b][1,4]dioxine-6-carboxamido)-2-methylphenyl)quinoline-6-carboxamide] yielded a 50% inhibitory concentration (IC50) of 23 nM.
In the case of `CCN1CCN(Cc2ccc3cc(C(=O)Nc4cc(NC(=O)c5ccc6c(c5)OCCO6)ccc4C)ccc3n2)CC1` [Example 204, N-(5-(2,3-dihydrobenzo[b][1,4]dioxine-6-carboxamido)-2-methylphenyl)-2-((4-ethylpiperazin-1-yl)methyl)quinoline-6-carboxamide], the IC50 was found to be 56 nM.
Take `Cc1ccc(NC(=O)c2ccc3c(c2)OCCO3)cc1NC(=O)c1ccc2nc(CN3CCCC3C)ccc2c1` (centres unmarked) [Example 205, N-(5-(2,3-dihydrobenzo[b][1,4]dioxine-6-carboxamido)-2-methylphenyl)-2-((2-methylpyrrolidin-1-yl)methyl)quinoline-6-carboxamide]: the IC50 is 65 nM. The IC50 values of the last two compounds are within 1.5-fold of each other.
In turn, `Cc1ccc(NC(=O)c2ccc3c(c2)OCCO3)cc1NC(=O)c1ccc2nc(CN3CC[C@@H](F)C3)ccc2c1` [Example 206, (R)—N-(5-(2,3-dihydrobenzo[b][1,4]dioxine-6-carboxamido)-2-methylphenyl)-2-((3-fluoropyrrolidin-1-yl)methyl)quinoline-6-carboxamide] registered an IC50 of 76 nM.
In the case of `Cc1ccc(NC(=O)c2ccc3c(c2)OCCO3)cc1NC(=O)c1ccc2nc(CN3CC[C@H](F)C3)ccc2c1` [Example 207, (S)—N-(5-(2,3-dihydrobenzo[b][1,4]dioxine-6-carboxamido)-2-methylphenyl)-2-((3-fluoropyrrolidin-1-yl)methyl)quinoline-6-carboxamide] it was 80 nM; in that of `COC1CCN(Cc2ccc3cc(C(=O)Nc4cc(NC(=O)c5ccc6c(c5)OCCO6)ccc4C)ccc3n2)C1` (centres unmarked) [Example 208, N-(5-(2,3-dihydrobenzo[b][1,4]dioxine-6-carboxamido)-2-methylphenyl)-2-((3-methoxypyrrolidin-1-yl)methyl)quinoline-6-carboxamide], 53 nM.
As to `Cc1ccc(NC(=O)c2ccc3c(c2)OCCO3)cc1NC(=O)c1ccc2nc(CN3CCCCC3)ccc2c1` [Example 209, N-(5-(2,3-dihydrobenzo[b][1,4]dioxine-6-carboxamido)-2-methylphenyl)-2-(piperidin-1-ylmethyl)quinoline-6-carboxamide], the IC50 was found to be 208 nM.
In the case of `C=Cc1ccc(NC(=O)c2ccc3c(c2)OCCO3)cc1NC(=O)c1ccc2nc(C)ccc2c1` [Example 210, N-(5-(2,3-dihydrobenzo[b][1,4]dioxine-6-carboxamido)-2-vinylphenyl)-2-methylquinoline-6-carboxamide] it was 419 nM; in that of `O=C(Nc1ccc(Cl)c(NC(=O)c2ccc3nc(OCCN4CCCC4)ccc3c2)c1)c1ccc2c(c1)OCCO2` [Example 211, N-(2-chloro-5-(2,3-dihydrobenzo[b][1,4]dioxine-6-carboxamido)phenyl)-2-(2-(pyrrolidin-1-yl)ethoxy)quinoline-6-carboxamide], 73 nM; in that of `CCN1CCN(Cc2ccc3cc(C(=O)Nc4cc(NC(=O)c5ccc6c(c5)OCCO6)ccc4F)ccc3n2)[C@H](C)C1` [Example 212, (R)—N-(5-(2,3-dihydrobenzo[b][1,4]dioxine-6-carboxamido)-2-fluorophenyl)-2-((4-ethyl-2-methylpiperazin-1-yl)methyl)quinoline-6-carboxamide], 85 nM.
`CCN1CCN(Cc2ccc3cc(C(=O)Nc4cc(NC(=O)c5ccc6c(c5)OCCO6)ccc4F)ccc3n2)[C@@H](C)C1` [Example 213, (S)—N-(5-(2,3-dihydrobenzo[b][1,4]dioxine-6-carboxamido)-2-fluorophenyl)-2-((4-ethyl-2-methylpiperazin-1-yl)methyl)quinoline-6-carboxamide] gave an IC50 of 57 nM. The IC50 values of the last two compounds are within 1.5-fold of each other.
`CCN1CCN(C(C)c2ccc3cc(C(=O)Nc4cc(NC(=O)c5ccc6c(c5)OCCO6)ccc4F)ccc3n2)CC1` (centres unmarked) [Example 214, N-(5-(2,3-dihydrobenzo[b][1,4]dioxine-6-carboxamido)-2-fluorophenyl)-2-(1-(4-ethylpiperazin-1-yl)ethyl)quinoline-6-carboxamide]: half-maximal inhibition (IC50) required 957 nM.
`CCN1CCN(Cc2ccc3cc(C(=O)Nc4cc(NC(=O)c5ccc6c(c5)OCCO6)ccc4Br)ccc3n2)CC1` [Example 215, N-(2-bromo-5-(2,3-dihydrobenzo[b][1,4]dioxine-6-carboxamido)phenyl)-2-((4-ethylpiperazin-1-yl)methyl)quinoline-6-carboxamide]: the IC50 was 39 nM.
In the case of `O=C(Nc1ccc(Br)c(NC(=O)c2ccc3nc(CN4CCC4)ccc3c2)c1)c1ccc2c(c1)OCCO2` [Example 216, 2-(azetidin-1-ylmethyl)-N-(2-bromo-5-(2,3-dihydrobenzo[b][1,4]dioxine-6-carboxamido)phenyl)quinoline-6-carboxamide] it was 55 nM.
Compound `CC(C)N1CCN(Cc2ccc3cc(C(=O)Nc4cc(NC(=O)c5ccc6c(c5)OCCO6)ccc4F)ccc3n2)[C@@H](C)C1` [Example 217, (S)—N-(5-(2,3-dihydrobenzo[b][1,4]dioxine-6-carboxamido)-2-fluorophenyl)-2-((4-isopropyl-2-methylpiperazin-1-yl)methyl)quinoline-6-carboxamide] returned an IC50 of 137 nM. This IC50 is about 2.5-fold higher than that of the compound before.
Consider `CC(C)N1CCN(Cc2ccc3cc(C(=O)Nc4cc(NC(=O)c5ccc6c(c5)OCCO6)ccc4F)ccc3n2)[C@H](C)C1` [Example 218, (R)—N-(5-(2,3-dihydrobenzo[b][1,4]dioxine-6-carboxamido)-2-fluorophenyl)-2-((4-isopropyl-2-methylpiperazin-1-yl)methyl)quinoline-6-carboxamide], for which the IC50 stood at 80 nM.
